According to article PMC8639922, “KSHV transactivator-derived small peptide traps coactivators to attenuate MYC and inhibits leukemia and lymphoma cell growth” (Communications Biology, 2021):
Several values for one entry are separate records, joined by “and”; a condition that tells them apart may be missing. Identical values can stand only once. Square brackets hold non-standard residues; d marks the D form. Peptide text beside a SMILES is read from it. Orn = NCCC[C@H](N)C(=O)O; βAla = NCCC(=O)O

Test system: KSHV lytic gene expression in TREx-K-Rta BCBL-1 cells
Test: KSHV genome-wide qRT-PCR array
Format: cell-based
Settings: D
Description: Because VGN50 is derived from the KSHV transactivator sequence, we next examined if VGN50 can inhibit KSHV lytic replication by competitively blocking the coactivator binding to K-Rta. To study this, we used the TREx-K-Rta BCBL-1 cell line, in which we can trigger the expression of exogenous Flag-tagged K-Rta in a doxycycline (Dox) inducible manner. TREx-K-Rta BCBL-1 cells were treated with […] VGN50 or mutant peptide, with or without Dox induction. We used approximately one-half of the IC50 concentration of VGN50 to treat the TREx-K-Rta BCBL-1 cells in order to avoid cell toxicity effects that would non-specifically decrease viral gene expression. KSHV gene expression was profiled with a KSHV genome-wide PCR array, using ribosomal rRNA for normalization and as an internal control. Fold activation relative to the uninduced Mut-P-treated sample (not induced: Dox -) was determined and a heatmap for KSHV lytic gene expression was generated (Fig. 3a). […] Immunoblotting was used to confirm the induction of lytic replication by Dox based on exogenous K-Rta protein (Flag-K-Rta) and the expression of two other KSHV lytic proteins (ORF57 and K-bZIP) along with actin and KSHV LANA protein as controls for equal loading and similar viral copy numbers in samples, respectively (Fig. 3b).
Fig. 3 Effects of VGN50 on KSHV gene transcription and VGN50 binding with SWI/SNF components. a KSHV qRT-PCR array analysis was used to study effects of VGN50 on KSHV gene transcription in a genome-wide manner. Uninduced (−; no doxycycline added) or dox-induced (+; 1 μg/ml) cells were treated with VGN50 or the mutant peptide (Mut-P) at a concentration of 24 μM. Samples were collected at 24 h post-treatment. Expression in uninduced cells was set as 1 for each viral gene and expression shown as fold activation relative to no-Dox samples. Selected cellular genes were also included in the PCR array for comparison. 18S ribosomal RNA was used as an internal control. b KSHV protein expression. Immunoblotting was performed to confirm both endogenous and exogenous K-Rta expression before (not induced) and after induction by Dox treatment (Dox-induced). Latent KSHV protein LANA and actin were used as controls for KSHV copy number (LANA) and loading (actin), respectively. Protein samples were collected 48-h post Dox incubation. c KSHV reactivation by VGN50 incubation. BCBL-1 and BC-1 cell lines were treated with VGN50 (16 μM concentration) and total RNA harvested at 24 h post treatment. KSHV PAN RNA expression was examined by qRT-PCR and relative expression over 18S rRNA is shown. Data are presented as mean ± SD (n = 3). d Purification of recombinant SWI/SNF components. SDS-PAGE analysis of five SWI/SNF components individually prepared from baculovirus-infected Sf9 cells. e A schematic illustration of ELISA assay to evaluate VGN50 and SWI/SNF interaction. f Analysis of VGN50 binding to SWI/SNF components by ELISA. Increasing concentrations of biotin-conjugated VGN50 or Mut-P were incubated in duplicate in an ELISA plate coated with each SWI/SNF component. Peptide binding measured as OD values at 450 nm are shown. Mean OD values were compared between the VGN50 and Mut-P in each concentration using unpaired t-test. **p < 0.01, *p < 0.05, NS no significance. Data are presented as mean ± SD with duplicated samples and repeated three times with different purified protein preps.

[1] = values are 2^-ddCT (fold vs MT ND)
[2] = values are 2^-ddCT (fold vs MT ND), listed as MT

## CC(C)C[C@H](NC(=O)CCNC(=O)[C@H](CCCNC(=N)N)NC(=O)[C@H](CCCNC(=N)N)NC(=O)[C@H](CCCNC(=N)N)NC(=O)[C@H](CCCN)NC(=O)[C@H](CCCNC(=N)N)NC(=O)[C@H](CCCNC(=N)N)NC(=O)[C@H](CCCCN)NC(=O)[C@H](CCCCN)NC(=O)[C@H](N)CCCNC(=N)N)C(=O)N[C@@H](CO)C(=O)N[C@@H](CO)C(=O)N[C@@H](C)C(=O)N[C@@H](C)C(=O)N[C@@H](C)C(=O)NCC(=O)N[C@@H](CC(C)C)C(=O)N[C@@H](Cc1ccc(O)cc1)C(=O)N[C@@H](CCC(N)=O)C(=O)N[C@@H](CC(C)C)C(=O)N[C@@H](CC(=O)O)C(=O)N[C@H](C(=O)O)[C@@H](C)O [Mt-P] (H-[dR]KKRR[Orn]RRR[βAla]LSSAAAGLYQLDT-OH; N-terminus and C-terminus assumed)
  IL- 6 ddCT (vs 18s and MT ND): -2.234
  IL- 10 ddCT (vs 18s and MT ND): 0.213
  ORF21 fold vs MT ND (headed ddCT): 10.438
  ORF 50 k-kta fold vs MT ND (headed ddCT): 158.652
  k 2 fold vs MT ND (headed ddCT): 197.507
Listed as MT
  K 9 fold vs MT ND (headed ddCT): 11.999 and 11.9991
  K 10 fold vs MT ND (headed ddCT): 11.665 and 11.6651
  ORF2 fold vs MT ND (headed ddCT): 35.093 and 35.0927
  ORF4 fold vs MT ND (headed ddCT): 46.543 and 46.5425
  ORF6 fold vs MT ND (headed ddCT): 13.632 and 13.6318
  ORF7 fold vs MT ND (headed ddCT): 12.162 and 12.1623
  ORF8 fold vs MT ND (headed ddCT): 10.223 and 10.2233
  ORF9 fold vs MT ND (headed ddCT): 6.076
  ORF11 fold vs MT ND (headed ddCT): 18.177 and 18.1766
  ORF16 fold vs MT ND (headed ddCT): 8.699 and 8.6991
  ORF17 fold vs MT ND (headed ddCT): 6.815
  ORF18 fold vs MT ND (headed ddCT): 4.417
  ORF19 fold vs MT ND (headed ddCT): 8.897
  ORF 20 fold vs MT ND (headed ddCT): 5.481
  ORF22.1 fold vs MT ND (headed ddCT): 6.976
  ORF23 fold vs MT ND (headed ddCT): 4.718
  ORF24 fold vs MT ND (headed ddCT): 6.384
  ORF 25 fold vs MT ND (headed ddCT): 4.629
  ORF26 fold vs MT ND (headed ddCT): 6.591
  ORF27 fold vs MT ND (headed ddCT): 19.313 and 19.3133
  ORF28 fold vs MT ND (headed ddCT): 5.046
  ORF29 fold vs MT ND (headed ddCT): 22.418 and 22.4181
  ORF30 fold vs MT ND (headed ddCT): 5.617
  ORF31 fold vs MT ND (headed ddCT): 9.188
  ORF32 fold vs MT ND (headed ddCT): 3.227
  ORF33 fold vs MT ND (headed ddCT): 10.461 and 10.4609
  ORF34 fold vs MT ND (headed ddCT): 6.891
  ORF35 fold vs MT ND (headed ddCT): 7.441
  ORF36 fold vs MT ND (headed ddCT): 21.557 and 21.5571
  ORF37 fold vs MT ND (headed ddCT): 14.520 and 14.5196
  ORF38 fold vs MT ND (headed ddCT): 28.906 and 28.9062
  ORF39 fold vs MT ND (headed ddCT): 11.635 and 11.6345
  ORF40 fold vs MT ND (headed ddCT): 4.674
  ORF41 fold vs MT ND (headed ddCT): 21.065 and 21.0654
  ORF42 fold vs MT ND (headed ddCT): 3.993
  ORF43 fold vs MT ND (headed ddCT): 8.726
  ORF44 fold vs MT ND (headed ddCT): 33.337 and 33.3373
  ORF45 fold vs MT ND (headed ddCT): 53.618 and 53.6182
  ORF 46 fold vs MT ND (headed ddCT): 6.457
  ORF 47 fold vs MT ND (headed ddCT): 62.278 and 62.2783
  ORF48 fold vs MT ND (headed ddCT): 31.118 and 31.1177
  ORF49 fold vs MT ND (headed ddCT): 16.390 and 16.3905
  ORF52 fold vs MT ND (headed ddCT): 27.531 and 27.5312
  ORF53 fold vs MT ND (headed ddCT): 16.215 and 16.2146
  ORF54 fold vs MT ND (headed ddCT): 10.079 and 10.0788
  ORF55 fold vs MT ND (headed ddCT): 10.827 and 10.8272
  ORF56 fold vs MT ND (headed ddCT): 13.04
  ORF57 fold vs MT ND (headed ddCT): 22.128 and 22.1283
  ORF70 fold vs MT ND (headed ddCT): 15.204 and 15.2038
  T1.5 ori RNA fold vs MT ND (headed ddCT): 26.465 and 26.4646
  k 1 fold vs MT ND (headed ddCT): 7.768
  k 3 fold vs MT ND (headed ddCT): 12.567 and 12.5669
  k 4 fold vs MT ND (headed ddCT): 33.463 and 33.4629
  k 6 -2 fold vs MT ND (headed ddCT): 13.375 and 13.3749
  k 7 real fold vs MT ND (headed ddCT): 14.740 and 14.7397
  pan set 2 fold vs MT ND (headed ddCT): 11.431 and 11.4312
[1]
  EGFP ddCT (vs 18s and MT ND), second block: 2.182
  IL- 6 ddCT (vs 18s and MT ND), second block: 4.704
  ORF67 ddCT (vs 18s and MT ND), second block: 1.460
  ORF68 ddCT (vs 18s and MT ND), second block: 3.433
  ORF74 ddCT (vs 18s and MT ND), second block: 1.662
  k 14 ddCT (vs 18s and MT ND), second block: 1.713
[2]
  IL- 10 ddCT (vs 18s and MT ND), second block: 0.863 and 0.8629
  K 11 ddCT (vs 18s and MT ND), second block: 85.514 and 85.5135
  K 12 ddCT (vs 18s and MT ND), second block: 1.587
  K 15 ddCT (vs 18s and MT ND), second block: 1.316
  ORF 58 ddCT (vs 18s and MT ND), second block: 7.125
  ORF59 ddCT (vs 18s and MT ND), second block: 3.052
  ORF60 ddCT (vs 18s and MT ND), second block: 1.439
  ORF61 ddCT (vs 18s and MT ND), second block: 2.555
  ORF 62 ddCT (vs 18s and MT ND), second block: 2.303
  ORF63 ddCT (vs 18s and MT ND), second block: 4.399
  ORF64 ddCT (vs 18s and MT ND), second block: 5.462 and 5.4617
  ORF65 ddCT (vs 18s and MT ND), second block: 2.091
  ORF66 ddCT (vs 18s and MT ND), second block: 6.232
  ORF69 ddCT (vs 18s and MT ND), second block: 3.398
  ORF71 ddCT (vs 18s and MT ND), second block: 6.849
  ORF72 ddCT (vs 18s and MT ND), second block: 2.075
  ORF 73 ddCT (vs 18s and MT ND), second block: 1.648
  ORF75 ddCT (vs 18s and MT ND), second block: 1.427
  T0.7 #1 ddCT (vs 18s and MT ND), second block: 5.275
  T0.7 #2 ddCT (vs 18s and MT ND), second block: 2.071
  T1.5 #2 ddCT (vs 18s and MT ND), second block: 13.571 and 13.5709
  VIRF3 ddCT (vs 18s and MT ND), second block: 5.775
